Common to all, as to format: functional
Assay [1] deals with Mycobacterium tuberculosis. The experiment in a line: Antimycobacterial activity against isoniazid and rifampicin-resistant Mycobacterium tuberculosis MTB985 clinical isolate by MTT assay.
In assay [2] the test system is Mycobacterium tuberculosis. The experiment in a line: Antimycobacterial activity against isoniazid and rifampicin-resistant Mycobacterium tuberculosis MTB411 clinical isolate by MTT assay. On the technique in general: Tetrazolium dyes change colour on reduction, which living cells bring about.
In assay [3] the test system is Mycobacterium tuberculosis. The experiment in a line: Antimycobacterial activity against isoniazid and rifampicin-resistant Mycobacterium tuberculosis UT544 clinical isolate by MTT assay.
In assay [4] the test system is Mycobacterium tuberculosis. The experiment in a line: Antimycobacterial activity against isoniazid and rifampicin-resistant Mycobacterium tuberculosis MTB4000 clinical isolate by MTT assay.
Assay [5] relates to Mycobacterium tuberculosis. The experiment in a line: Antimycobacterial activity against isoniazid and rifampicin-resistant Mycobacterium tuberculosis MTB2556 clinical isolate by MTT assay.
The subject of assay [6] is Mycobacterium tuberculosis. The experiment in a line: Antimycobacterial activity against streptomycin-resistant Mycobacterium tuberculosis H37Rv ATCC 35820 by MTT assay.
The subject of assay [7] is Mycobacterium tuberculosis. Nature of the assay: Antimycobacterial activity against isoniazid-resistant Mycobacterium tuberculosis H37Rv ATCC 35822 by MTT assay.
The test system of assay [8] is Mycobacterium tuberculosis. The experiment in a line: Antimycobacterial activity against rifampicin-resistant Mycobacterium tuberculosis H37Rv ATCC 35838 by MTT assay.
Assay [9] has as its system Mycobacterium tuberculosis. The experiment in a line: Antimycobacterial activity against ethambutol-resistant Mycobacterium tuberculosis H37Rv ATCC 35837 by MTT assay.

15 molecules from ChEMBL document CHEMBL3112512, “Microwave induced three-component synthesis and antimycobacterial activity of benzopyrazolo[3,4-b]quinolindiones” (2014) can be followed below.

Values after ≈ are worked out from the molar mass of the structure shown.

Broadly, the MIC is the smallest concentration in the dilution series that meets the test's criterion for growth inhibition. On to `Cc1nn(-c2ccccc2)c2nc3c(c(-c4ccccc4)c12)C(=O)C(=O)c1ccccc1-3`, for which the MIC in [1] was no more than 2 µg/mL; in [2] it was 4 µg/mL (≈ 9.63 µM); in [3] it was no more than 2 µg/mL; in assay [4], no more than 2 µg/mL; in assay [5], no more than 2 µg/mL; in assay [6] it was no more than 2 µg/mL. Moreover, the MIC in assay [7], in assay [8] and in assay [9] was no more than 2 µg/mL throughout.
Turning to `Cc1ccc(-c2c3c(nc4c2c(C)nn4-c2ccccc2)-c2ccccc2C(=O)C3=O)cc1`, the MIC is no more than 2 µg/mL in assay [1]; 4 µg/mL (≈ 9.31 µM) in assay [2]; no more than 2 µg/mL in [3]; no more than 2 µg/mL in assay [4]; no more than 2 µg/mL in [5]; no more than 2 µg/mL in assay [6]. In addition, the MIC in assay [7] was no more than 2 µg/mL; in [8] it was 4 µg/mL (≈ 9.31 µM); in assay [9] it was 4 µg/mL (≈ 9.31 µM).
`COc1cc(-c2c3c(nc4c2c(C)nn4-c2ccccc2)-c2ccccc2C(=O)C3=O)cc(OC)c1OC`: the MIC in [1], in assay [2], in assay [3], in assay [4], in assay [5] and in [6] was greater than 32 µg/mL each time. The MIC in assay [7], in [8] and in assay [9] was greater than 32 µg/mL in each case.
As for `Cc1nn(-c2ccccc2)c2nc3c(c(-c4ccc(Cl)cc4)c12)C(=O)C(=O)c1ccccc1-3`, the MIC in assay [1], in assay [2], in assay [3], in assay [4], in assay [5] and in assay [6] was greater than 32 µg/mL throughout. The MIC in assay [7], in assay [8] and in assay [9] was greater than 32 µg/mL throughout.
`Cc1nn(-c2ccccc2)c2nc3c(c(-c4ccc(F)cc4)c12)C(=O)C(=O)c1ccccc1-3`: the MIC in [1] was no more than 2 µg/mL; in assay [2] it was 4 µg/mL (≈ 9.23 µM); in assay [3], no more than 2 µg/mL; in assay [4], no more than 2 µg/mL; in [5] it was no more than 2 µg/mL; in [6], no more than 2 µg/mL. Moreover, the figures for the MIC in assay [7], in assay [8] and in [9] were no more than 2 µg/mL, 4 µg/mL (≈ 9.23 µM) and 4 µg/mL (≈ 9.23 µM), respectively.
As to `O=C1C(=O)c2ccccc2C2=C1C(c1ccccc1)c1c(-c3ccccc3)n[nH]c1N2` (stereo not given), the MIC in assay [1], in assay [2], in assay [3], in [4], in [5] and in assay [6] was greater than 32 µg/mL throughout. Further, the MIC in [7], in [8] and in assay [9] was greater than 32 µg/mL each time.
As for `Cc1ccc(C2C3=C(Nc4[nH]nc(-c5ccccc5)c42)c2ccccc2C(=O)C3=O)cc1` (stereo not given), the minimum inhibitory concentration (MIC) in assay [1], in assay [2], in assay [3], in assay [4], in assay [5] and in [6] was greater than 32 µg/mL throughout. For the same molecule, the minimal inhibitory concentration (MIC) in [7], in assay [8] and in assay [9] was greater than 32 µg/mL in each case.
Turning to `COc1ccc(C2C3=C(Nc4[nH]nc(-c5ccccc5)c42)c2ccccc2C(=O)C3=O)cc1` (stereo not given), the MIC in assay [1], in [2], in assay [3], in assay [4], in assay [5] and in assay [6] was greater than 32 µg/mL each time. For the same molecule, the MIC in assay [7], in assay [8] and in assay [9] was greater than 32 µg/mL throughout.
As to `Cc1ccc(-c2n[nH]c3c2C(c2ccccc2)C2=C(N3)c3ccccc3C(=O)C2=O)cc1` (stereo not given), the MIC in [1], in assay [2], in [3], in [4], in [5] and in [6] was 16 µg/mL (≈ 38.3 µM) in each case. In addition, the MIC in [7] worked out at 16 µg/mL (≈ 38.3 µM); in assay [8], 4 µg/mL (≈ 9.58 µM); in assay [9], 16 µg/mL (≈ 38.3 µM).
Take `O=C1C(=O)c2ccccc2C2=C1C(c1ccccc1)c1c(-c3ccc(Cl)cc3)n[nH]c1N2` (stereo not given): the MIC in [1], in assay [2], in assay [3], in assay [4], in assay [5] and in assay [6] was greater than 32 µg/mL throughout. Moreover, the MIC in [7], in [8] and in assay [9] was greater than 32 µg/mL in each case.
In the case of `O=C1C(=O)c2ccccc2C2=C1C(c1ccccc1)c1c(-c3ccc([N+](=O)[O-])cc3)n[nH]c1N2` (stereo not given), the MIC is 8 µg/mL (≈ 17.8 µM) in assay [1]; 16 µg/mL (≈ 35.7 µM) in assay [2]; 8 µg/mL (≈ 17.8 µM) in assay [3]; 16 µg/mL (≈ 35.7 µM) in [4]; 8 µg/mL (≈ 17.8 µM) in assay [5]; 16 µg/mL (≈ 35.7 µM) in assay [6]. Also, the minimal inhibitory concentration (MIC) is 16 µg/mL (≈ 35.7 µM) in assay [7], 16 µg/mL (≈ 35.7 µM) in [8] and greater than 32 µg/mL in assay [9].
`Cc1ccc(-c2n[nH]c3nc4c(c(-c5ccc([N+](=O)[O-])cc5)c23)C(=O)C(=O)c2ccccc2-4)cc1`: the MIC in assay [1], in assay [2], in assay [3], in [4], in assay [5] and in assay [6] was greater than 32 µg/mL each time. Further, the MIC in [7], in [8] and in [9] was greater than 32 µg/mL in each case.
Take `COc1ccc(-c2c3c(nc4[nH]nc(-c5ccc(Cl)cc5)c24)-c2ccccc2C(=O)C3=O)cc1`: the MIC in assay [1] stood at 16 µg/mL (≈ 34.3 µM); in [2], 16 µg/mL (≈ 34.3 µM); in [3] it was 8 µg/mL (≈ 17.2 µM); in assay [4], 16 µg/mL (≈ 34.3 µM); in assay [5], 8 µg/mL (≈ 17.2 µM); in assay [6], 16 µg/mL (≈ 34.3 µM). In addition, the MIC was greater than 32 µg/mL in [7], 16 µg/mL (≈ 34.3 µM) in assay [8] and greater than 32 µg/mL in assay [9].
With `NNC(=O)c1ccncc1` [ISONIAZID], the MIC was greater than 0.5 µg/mL in [1]; greater than 0.5 µg/mL in assay [2]; greater than 0.5 µg/mL in assay [3]; greater than 0.5 µg/mL in assay [4]; greater than 0.5 µg/mL in assay [5]; 0.25 µg/mL (≈ 1.82 µM) in assay [6]. For the same molecule, the results for the MIC in [7], in [8] and in assay [9] were greater than 0.5 µg/mL, 0.25 µg/mL (≈ 1.82 µM) and 0.25 µg/mL (≈ 1.82 µM), respectively.
For the molecule `CO[C@H]1/C=C/O[C@@]2(C)Oc3c(C)c(O)c4c(O)c(c(/C=N/N5CCN(C)CC5)c(O)c4c3C2=O)NC(=O)/C(C)=C\C=C\[C@H](C)[C@H](O)[C@@H](C)[C@@H](O)[C@@H](C)[C@H](OC(C)=O)[C@@H]1C` [RIFAMPIN], the MIC was greater than 0.5 µg/mL in [1]; greater than 0.5 µg/mL in assay [2]; greater than 0.5 µg/mL in assay [3]; greater than 0.5 µg/mL in assay [4]; greater than 0.5 µg/mL in assay [5]; 0.125 µg/mL (≈ 0.152 µM) in assay [6]. Further, the minimal inhibitory concentration (MIC) in assay [7] was 0.125 µg/mL (≈ 0.152 µM); in assay [8], greater than 0.5 µg/mL; in assay [9], 0.125 µg/mL (≈ 0.152 µM).
